Results: ChEMBL document CHEMBL1201862, “PubChem BioAssay data set” (2004)
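Step 1: Grow cells in 96-well plates. Step 2: Expose to compound for 48 hours at 5 concentrations. Step 3: Interpolate endpoints linearly; if unreached, use highest concentration. The concentration for 50% growth inhibition is given as GI50.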 Activity calls are given as the source filed them. Cut-off read from the data, not from the text of the source: active = GI50 up to about 1.1 µM and inactive = higher.

Key:
Assay in all cases: growth of human tumour cells (NCI), 48 h
[1] = test system: A498
[2] = test system: A549
[3] = test system: ACHN
[4] = test system: HCT-116
[5] = test system: HOP-92
[6] = test system: HT-29
[7] = test system: M14
[8] = test system: NCI-H226
[9] = test system: NCI-H522
[10] = test system: OVCAR-5
[11] = test system: SF-295
[12] = test system: SF-539
[13] = test system: SK-MEL-2
[14] = test system: SK-OV-3
[15] = test system: TK-10
[16] = test system: UO-31
[17] = test system: DU-145
[18] = test system: MDA-MB-435
[19] = test system: MDA-N
[20] = test system: PC-3

Measured: GI50

Oc1cc2cc(-c3ccccc3)[nH]c2c2ccccc12
inactive: [1] > 100 µM | [2] 30.1 µM | [3] 25 µM | [4] 17.1 µM | [5] 23.8 µM | [6] 68.9 µM | [7] 20.3 µM | [8] > 100 µM | [9] 15.3 µM | [10] > 100 µM | [11] 7.1 µM | [12] 28.6 µM | [13] 20.3 µM | [14] > 77.8 µM | [15] > 100 µM | [16] 19.2 µM

COc1cc(/C=N\c2ccc(C(C)C)cc2)cc(OC)c1OC
inactive: [1] > 100 µM | [2] > 100 µM | [3] > 100 µM | [4] > 100 µM | [5] > 88.3 µM | [6] > 100 µM | [7] > 100 µM | [8] > 100 µM | [9] > 59.7 µM | [10] > 100 µM | [11] > 100 µM | [12] > 100 µM | [13] > 100 µM | [14] > 100 µM | [15] > 100 µM | [16] > 74.1 µM

CCC1c2cc3n(c(=O)c2COC1O)Cc1c-3nc2ccccc2c1Cl (configuration not stated)
inactive: [1] 52.6 µM | [2] 28.5 µM | [3] 19.3 µM | [4] 20.1 µM | [5] > 100 µM | [6] 70.1 µM | [7] 25 µM | [8] 39.6 µM | [9] 5.05 µM | [10] > 100 µM | [11] 20.9 µM | [12] 22.2 µM | [13] > 100 µM | [14] > 75 µM | [15] > 100 µM | [16] 19.4 µM

O=c1cn[nH]c(=S)n1/N=C/c1c[nH]c2ccccc12
inactive: [1] > 100 µM | [2] > 100 µM | [3] > 100 µM | [17] > 100 µM | [4] > 100 µM | [6] > 100 µM | [7] > 100 µM | [18] 58.5 µM | [19] 87.1 µM | [9] 39.1 µM | [10] > 100 µM | [20] 77.6 µM | [11] > 100 µM | [12] > 100 µM | [13] > 100 µM | [14] > 100 µM | [16] > 100 µM

O=C1CC(c2ccco2)C2(C(=O)NC(=O)NC2=O)C(c2ccco2)C1 (configuration not stated)
inactive: [1] > 75 µM | [2] > 75 µM | [3] > 75 µM | [17] > 75 µM | [4] > 75 µM | [6] > 75 µM | [7] > 75 µM | [18] > 75 µM | [19] > 75 µM | [9] > 75 µM | [10] > 75 µM | [20] > 75 µM | [11] > 75 µM | [12] > 75 µM | [13] > 75 µM | [14] > 75 µM | [15] > 75 µM | [16] > 75 µM

C/C(=N\NC(=S)NC(C)C)c1nc2cccnc2[nH]1
inactive: [1] > 47.6 µM | [2] 31.5 µM | [3] 21.9 µM | [17] 51.1 µM | [4] 11.3 µM | [5] 39.9 µM | [6] 12.8 µM | [7] 57.9 µM | [19] > 100 µM | [8] 9.25 µM | [9] 13.8 µM | [10] 28.8 µM | [20] 27.9 µM | [11] 12 µM | [12] > 37.9 µM | [13] 18.7 µM | [14] 12.7 µM | [15] 21.3 µM | [16] 3.78 µM

COc1cc(Cn2c3c(c4cc(O)ccc42)Cc2ccccc2C3=O)cc(OC)c1
inactive: [1] > 100 µM | [2] 74 µM | [17] 58.1 µM | [4] 34.4 µM | [6] 37.1 µM | [7] 68.1 µM | [18] 11.9 µM | [19] 12 µM | [8] > 100 µM | [10] 19.1 µM | [20] 56.5 µM | [11] 25.8 µM | [12] 37.3 µM | [13] > 100 µM | [14] > 100 µM | [15] > 100 µM | [16] > 100 µM

CC(C)(C)OC(=O)NCC(CNC(=O)OC(C)(C)C)c1nc(C(N)=O)cs1
inactive: [1] > 100 µM | [2] > 100 µM | [3] > 100 µM | [4] > 100 µM | [5] > 100 µM | [6] > 100 µM | [7] > 100 µM | [18] > 100 µM | [19] > 100 µM | [8] > 100 µM | [10] > 100 µM | [20] > 100 µM | [11] > 100 µM | [12] > 100 µM | [13] > 100 µM | [14] > 100 µM | [15] > 100 µM | [16] > 100 µM

Nc1ccc(C(=O)NN2C(=O)C(Cl)C2c2ccc([N+](=O)[O-])cc2)cc1 (configuration not stated)
inactive: [1] 20.8 µM | [2] 11.9 µM | [3] 12.3 µM | [4] 1.63 µM | [5] 17.5 µM | [6] 8.87 µM | [7] 12.9 µM | [8] 17.2 µM | [9] 1.73 µM | [10] 17.6 µM | [11] 13.8 µM | [12] 11.6 µM | [13] 16.9 µM | [14] 14.1 µM | [15] 19.2 µM | [16] 15.6 µM

COc1cc(CNC(=S)CCCCCCCCCCC(C)C)ccc1O
inactive: [1] 31.6 µM | [2] 53 µM | [3] 58.7 µM | [17] > 100 µM | [4] 31.6 µM | [5] 24.2 µM | [6] 36.7 µM | [7] 48.4 µM | [18] 41.9 µM | [8] 18.4 µM | [10] > 100 µM | [11] 43.7 µM | [12] > 100 µM | [14] > 100 µM | [15] > 100 µM | [16] 11.9 µM

CCOC(=O)C(O)(NC(=O)Nc1ccc(F)cc1)C(F)(F)F (configuration not stated)
inactive: [1] > 100 µM | [2] > 100 µM | [3] > 100 µM | [4] > 100 µM | [6] > 100 µM | [7] > 100 µM | [18] > 100 µM | [19] > 100 µM | [10] > 100 µM | [20] > 100 µM | [12] > 100 µM | [13] > 100 µM | [14] > 100 µM | [15] > 100 µM | [16] > 100 µM

O=C(O)C1=NN(c2ccc(S(=O)(=O)O)cc2)C2(C1)SCC(=O)N2c1nc2ccccc2s1 (configuration not stated)
inactive: [1] > 100 µM | [2] > 100 µM | [3] > 100 µM | [17] > 100 µM | [4] > 100 µM | [5] > 100 µM | [6] > 100 µM | [7] > 100 µM | [18] > 100 µM | [8] 5.3 µM | [9] > 100 µM | [10] > 100 µM | [20] > 100 µM | [11] > 100 µM | [12] > 100 µM | [13] > 100 µM | [14] > 100 µM | [15] > 100 µM | [16] > 100 µM

[O-][S+]1Nc2c(Cl)cc(Cl)c3c(Cl)cc(Cl)c(c23)N1
inactive: [1] 21.9 µM | [2] 29.6 µM | [3] 27.7 µM | [4] 34.1 µM | [5] 21.3 µM | [6] 41.9 µM | [7] 31.8 µM | [8] 25.1 µM | [9] 22.7 µM | [10] 27.8 µM | [11] 53.1 µM | [12] 36.7 µM | [13] 47 µM | [14] 45.7 µM | [15] 42.6 µM | [16] 51.8 µM

Cc1ccccc1NC(=O)/C(C#N)=N\Nc1[nH]cnc1C(N)=O
inactive: [2] > 100 µM | [3] 5.28 µM | [17] 2.79 µM | [4] 4.37 µM | [6] 38.6 µM | [7] 2.66 µM | [18] 4.68 µM | [19] 12.9 µM | [8] 41.4 µM | [9] 18 µM | [10] 40.3 µM | [20] 4.44 µM | [11] 9.82 µM | [13] 1.18 µM | [14] 1.59 µM | [15] 3.08 µM | [16] 1.62 µM

O=C(O)/C=c1/c2ccccc2n2nc3ccccc3c12
inactive: [1] 22 µM | [2] 38.2 µM | [3] 23.8 µM | [17] 41.6 µM | [4] 24.8 µM | [6] 39.3 µM | [7] 31.2 µM | [18] 31.6 µM | [19] 26 µM | [9] 20.7 µM | [10] 57.9 µM | [20] > 100 µM | [11] 30.8 µM | [12] 19.8 µM | [13] 39.7 µM | [14] 22.8 µM | [15] 30.3 µM | [16] 37.6 µM

O=C(O)CCNC(=O)c1cc(N(CCBr)CCBr)c([N+](=O)[O-])cc1[N+](=O)[O-]
inactive: [1] > 100 µM | [2] > 100 µM | [3] > 100 µM | [4] > 100 µM | [5] > 100 µM | [6] > 100 µM | [7] > 100 µM | [18] > 100 µM | [19] > 100 µM | [8] > 100 µM | [9] > 100 µM | [10] > 100 µM | [20] > 100 µM | [11] > 100 µM | [13] > 100 µM | [14] > 100 µM | [15] > 100 µM | [16] > 100 µM
